Laboratory results reported in the Kinase Knowledgebase extract (Sharma et al. 2016).

molecular target: PIK3CB;PIK3CG;PIK3CD;PIK3CA (human) (UniProt P48736); test: Enzyme Assay

Which IC50 does the source give for CN1CCN(Cc2ccc(-n3nc(C(=O)N4CCOCC4)c4c3-c3ccccc3S(=O)(=O)C4)cn2)CC1 here?
Its IC50 is 335 nM.

Which IC50 does the source give for O=C(c1nn(C2CCCN(CCN3CC[C@@H](F)C3)C2)c2c1CS(=O)(=O)c1ccccc1-2)N1CCOCC1 (some centres not stated) here?
Its IC50 is 34 nM.

Which IC50 does the source give for CN1CCC(OCCN2CCC[C@H](n3nc(C(=O)N4CCOCC4)c4c3-c3ccccc3S(=O)(=O)C4)C2)CC1 here?
The IC50 was 20 nM.

For O=C(c1nn(CC2CCOCC2)c2c1CS(=O)(=O)c1ccccc1-2)N1CCOCC1, which IC50 is on record?
The IC50 was 789 nM.

Which IC50 does the source give for COCCN1CCC(n2nc(C(=O)N3CCOCC3)c3c2-c2ccccc2S(=O)(=O)C3)C1 (configuration not stated) here?
The IC50 was 1480 nM.

How did the IC50 turn out when CCCn1nc(C(=O)N2CCOCC2)c2c1-c1ccccc1S(=O)(=O)C2 was run?
The IC50 was 641 nM.

For COCCN(C)Cc1ccc(-n2nc(C(=O)N3CCOCC3)c3c2-c2ccccc2S(=O)(=O)C3)cc1, which IC50 is on record?
Its IC50 is 113 nM.

How did the IC50 turn out when O=C(c1nn(C2CCCN(CCO)C2)c2c1CS(=O)(=O)c1ccccc1-2)N1CCOCC1 (configuration not stated) was run?
The IC50 was 815 nM.

O=C(c1nn(-c2cccc(N3CCCC3)c2)c2c1CS(=O)(=O)c1ccccc1-2)N1CCOCC1 was tested. Which IC50 did it give?
The IC50 was 4950 nM.

Which IC50 does the source give for O=C(c1nn(-c2ccccc2)c2c1CS(=O)(=O)c1nccn1-2)N1CCOCC1 here?
The IC50 was 477 nM.

For O=C(c1nn(-c2ccc3nn(Cc4ccccc4)cc3c2)c2c1CS(=O)(=O)c1ccccc1-2)N1CCOCC1, which IC50 is on record?
The IC50 was 2080 nM.

How did the IC50 turn out when O=C(NC1CCCCC1)N1CCC(n2nc(C(=O)N3CCOCC3)c3c2-c2ccccc2S(=O)(=O)C3)C1 (configuration not stated) was run?
Its IC50 is 875 nM.

Which IC50 does the source give for O=C(c1nn(C2CCN(CCO)CC2)c2c1CS(=O)(=O)c1ccccc1-2)N1CCOCC1 here?
The IC50 was 1760 nM.

Which IC50 does the source give for O=C(c1nn([C@@H]2CCN(C3CCOCC3)C2)c2c1CS(=O)(=O)c1c(F)cccc1-2)N1CCOCC1 here?
The IC50 was 2040 nM.

How did the IC50 turn out when CNCc1ccc(-n2nc(C(=O)N3CCOCC3)c3c2-c2ccccc2S(=O)(=O)C3)cc1 was run?
The IC50 was 226 nM.

Which IC50 does the source give for O=C(c1nn(-c2cccc(CN3CCS(=O)(=O)CC3)c2)c2c1CS(=O)(=O)c1ccccc1-2)N1CCOCC1 here?
The IC50 was 639 nM.

Which IC50 does the source give for COCCNCCN1CCC[C@H](n2nc(C(=O)N3CCOCC3)c3c2-c2ccccc2S(=O)(=O)C3)C1 here?
The IC50 was 34 nM.

With O=C(c1nn(-c2ccc(CN3CCCCC3)cc2)c2c1CS(=O)(=O)c1ccccc1-2)N1CCOCC1 as the molecule, how does the IC50 read?
The IC50 was 110 nM.

O=C(c1nn(CCc2ccccc2)c2c1CS(=O)(=O)c1ccccc1-2)N1CCOCC1 was tested. Which IC50 did it give?
Its IC50 is 1440 nM.

For COC(=O)c1ccc(Cn2nc(C(=O)N3CCOCC3)c3c2-c2ccccc2S(=O)(=O)C3)o1, which IC50 is on record?
Its IC50 is 431 nM.

For CN1CCCC1CCn1nc(C(=O)N2CCOCC2)c2c1-c1ccccc1S(=O)(=O)C2 (configuration not stated), which IC50 is on record?
Its IC50 is 1230 nM.

For O=C(c1nn([C@H]2CCCN(c3cccnc3)C2)c2c1CS(=O)(=O)c1ccccc1-2)N1CCOCC1, which IC50 is on record?
The IC50 was 48 nM.

How did the IC50 turn out when COC1CCN(CCN2CCC[C@H](n3nc(C(=O)N4CCOCC4)c4c3-c3ccccc3S(=O)(=O)C4)C2)CC1 was run?
Its IC50 is 21 nM.

Which IC50 does the source give for O=C(c1nn(C2CCN(C3CCOCC3)C2)c2c1CS(=O)(=O)c1c(F)cccc1-2)N1CCOCC1 (configuration not stated) here?
Its IC50 is 29 nM.

How did the IC50 turn out when O=C(CCN1CCC[C@H](n2nc(C(=O)N3CCOCC3)c3c2-c2ccccc2S(=O)(=O)C3)C1)N1CCC(F)(F)C1 was run?
The IC50 was 41 nM.

For O=C(c1nn(-c2ccccc2)c2c1NS(=O)(=O)c1ccccc1-2)N1CCOCC1, which IC50 is on record?
The IC50 was 5500 nM.

COCCNCc1ccc(-n2nc(C(=O)N3CCOCC3)c3c2-c2ccccc2S(=O)(=O)C3)cc1 was tested. Which IC50 did it give?
Its IC50 is 164 nM.

O=C(c1nn([C@@H]2CCN(C3CCOCC3)C2)c2c1CS(=O)(=O)c1ccccc1-2)N1CCOCC1 was tested. Which IC50 did it give?
The IC50 was 45 nM.

How did the IC50 turn out when COCc1ccc(-n2nc(C(=O)N3CCOCC3)c3c2-c2ccccc2S(=O)(=O)C3)cc1 was run?
The IC50 was 667 nM.

Which IC50 does the source give for O=C(c1nn([C@@H]2CCCN(CCC3CCOCC3)C2)c2c1CS(=O)(=O)c1ncccc1-2)N1CCOCC1 here?
Its IC50 is 99 nM.

For CN(C)c1ccc2c(c1)S(=O)(=O)Cc1c(C(=O)N3CCOCC3)nn(-c3ccccc3)c1-2, which IC50 is on record?
The IC50 was 5020 nM.

For O=C(c1nn([C@H]2CCCN(CCN3CCOCC3)C2)c2c1CS(=O)(=O)c1cc(F)ccc1-2)N1CCOCC1, which IC50 is on record?
Its IC50 is 14 nM.

How did the IC50 turn out when COCCN1CCC[C@@H](n2nc(C(=O)N3CCOCC3)c3c2-c2ccccc2S(=O)(=O)C3)C1 was run?
Its IC50 is 3550 nM.

With O=C(c1nn(-c2ccccc2)c2c1CS(=O)(=O)c1ccncc1-2)N1CCOCC1 as the molecule, how does the IC50 read?
Its IC50 is 3050 nM.

How did the IC50 turn out when O=C(c1nn(-c2ccccc2)c2c1C(Cc1ccccc1)S(=O)(=O)c1ccccc1-2)N1CCOCC1 (configuration not stated) was run?
Its IC50 is 2480 nM.

For COCc1noc(-c2cccc(-n3nc(C(=O)N4CCOCC4)c4c3-c3ccccc3S(=O)(=O)C4)c2)n1, which IC50 is on record?
The IC50 was 4190 nM.

For CC1(C)CN(CCN2CCC[C@H](n3nc(C(=O)N4CCOCC4)c4c3-c3ccccc3S(=O)(=O)C4)C2)CCO1, which IC50 is on record?
Its IC50 is 73 nM.

Which IC50 does the source give for O=C(c1nn(-c2ccc(CN3CCOCC3)cc2)c2c1CS(=O)(=O)c1ccccc1-2)N1CCOCC1 here?
Its IC50 is 170 nM.

O=C(c1nn([C@@H]2CCN(CCC3CCOCC3)C2)c2c1CS(=O)(=O)c1c(F)cccc1-2)N1CCOCC1 was tested. Which IC50 did it give?
Its IC50 is 1690 nM.

With O=C(c1nn(-c2cccc(Cn3ccnc3)c2)c2c1CS(=O)(=O)c1ccccc1-2)N1CCOCC1 as the molecule, how does the IC50 read?
Its IC50 is 673 nM.

O=C(c1nn(C2CCCN(CC3CCOC3)C2)c2c1CS(=O)(=O)c1c(F)cccc1-2)N1CCOCC1 (configuration not stated) was tested. Which IC50 did it give?
The IC50 was 21 nM.

O=C(c1ccc2c(c1)-c1c(c(C(=O)N3CCOCC3)nn1-c1ccccc1)CS2(=O)=O)N1CCOCC1 was tested. Which IC50 did it give?
Its IC50 is 3030 nM.

For O=C(NC1CCOCC1)c1cccc(-n2nc(C(=O)N3CCOCC3)c3c2-c2ccccc2S(=O)(=O)C3)c1, which IC50 is on record?
The IC50 was 1260 nM.

Which IC50 does the source give for CC1CN(C(=O)c2nn(-c3ccccc3)c3c2CS(=O)(=O)c2ccccc2-3)CCO1 (configuration not stated) here?
Its IC50 is 2160 nM.

Which IC50 does the source give for CC(C)(C)OC(=O)N1CCC(n2nc(C(=O)N3CCOCC3)c3c2-c2ccccc2S(=O)(=O)C3)CC1 here?
Its IC50 is 808 nM.

O=C(c1nn([C@H]2CCN(CCN3CCC(F)CC3)C2)c2c1CS(=O)(=O)c1ccccc1-2)N1CCOCC1 was tested. Which IC50 did it give?
The IC50 was 55 nM.

With CC(=O)Nc1ccc2c(c1)-c1c(c(C(=O)N3CCOCC3)nn1-c1ccccc1)CS2(=O)=O as the molecule, how does the IC50 read?
Its IC50 is 876 nM.

Which IC50 does the source give for O=C1CCCN1CCN1CCC[C@H](n2nc(C(=O)N3CCOCC3)c3c2-c2ccccc2S(=O)(=O)C3)C1 here?
The IC50 was 80 nM.

For CC(C)(C)OC(=O)N1CCCC(n2nc(C(=O)N3CCOCC3)c3c2-c2ccccc2S(=O)(=O)C3)C1 (configuration not stated), which IC50 is on record?
Its IC50 is 1540 nM.

For CS(=O)(=O)c1cccc(-n2nc(C(=O)N3CCOCC3)c3c2-c2ccccc2S(=O)(=O)C3)c1, which IC50 is on record?
Its IC50 is 2560 nM.

Which IC50 does the source give for COc1cccc2c1S(=O)(=O)Cc1c(C(=O)N3CCOCC3)nn([C@H]3CCCN(CCN4CC(F)C4)C3)c1-2 here?
Its IC50 is 62 nM.

For O=C(c1nn(-c2cccc(CN3CCCC(F)(F)C3)c2)c2c1CS(=O)(=O)c1ccccc1-2)N1CCOCC1, which IC50 is on record?
The IC50 was 1540 nM.

How did the IC50 turn out when O=C(c1nn([C@H]2CCCN(CC3CCOCC3)C2)c2c1CS(=O)(=O)c1ncccc1-2)N1CCOCC1 was run?
The IC50 was 13 nM.

Which IC50 does the source give for Cc1ccccc1-c1ccc(-n2nc(C(=O)N3CCOCC3)c3c2-c2ccccc2S(=O)(=O)C3)cc1 here?
The IC50 was 6470 nM.

With CC1COCCN1Cc1ccc(-n2nc(C(=O)N3CCOCC3)c3c2-c2ccccc2S(=O)(=O)C3)cc1 (configuration not stated) as the molecule, how does the IC50 read?
Its IC50 is 180 nM.

With NCCN1CCC[C@H](n2nc(C(=O)N3CCOCC3)c3c2-c2ccccc2S(=O)(=O)C3)C1 as the molecule, how does the IC50 read?
Its IC50 is 73 nM.

How did the IC50 turn out when O=C(c1nn(CC2CCCCC2)c2c1CS(=O)(=O)c1ccccc1-2)N1CCOCC1 was run?
Its IC50 is 509 nM.

O=C(c1nn([C@H]2CCCN(C3CCCNC3)C2)c2c1CS(=O)(=O)c1ccccc1-2)N1CCOCC1 (some centres not stated) was tested. Which IC50 did it give?
The IC50 was 25 nM.

How did the IC50 turn out when NC(=O)c1cccc2c1S(=O)(=O)Cc1c(C(=O)N3CCOCC3)nn(-c3ccccc3)c1-2 was run?
The IC50 was 7900 nM.

With CN(C)CCCn1nc(C(=O)N2CCOCC2)c2c1-c1ccccc1S(=O)(=O)C2 as the molecule, how does the IC50 read?
The IC50 was 3110 nM.

O=C(c1nn(-c2cccc(-c3cccnc3)c2)c2c1CS(=O)(=O)c1ccccc1-2)N1CCOCC1 was tested. Which IC50 did it give?
Its IC50 is 280 nM.

For CCOc1ccc2c(c1)S(=O)(=O)Cc1c(C(=O)N3CCOCC3)nn(-c3ccc(CN4CCOCC4)cc3)c1-2, which IC50 is on record?
Its IC50 is 250 nM.
